From US8999956B2, “N-[(het)arylalkyl)] pyrazole(thio)carboxamides and their heterosubstituted analogues” (Bayer Intellectual Property GmbH, priority 2010, dated 2015)

System: not listed separately
Experiment: log P by HPLC on reversed-phase column (EEC Directive 79/831 Annex V.A8)
Format: physicochemical
Conditions: not given
Procedure: In table 1, the log P values were determined in accordance with EEC Directive 79/831 Annex V.A8 by HPLC (High Performance Liquid Chromatography) on a reversed-phase column (C18), using the method described below: Temperature: 40° C.; […]

| Structure (SMILES) | logP |
| --- | --- |
| Cn1nc(C(F)F)c(C(=O)NC(C)(C)CCc2ccccc2Cl)c1Cl [Example 147] | 3.99 |
| Cn1nc(C(F)F)c(C(=O)NCCCc2ccc(Cl)cc2Cl)c1Cl [Example 179] | 3.68 |
| CN(C(=O)c1c(C(F)F)nn(C)c1F)C(COc1ccc2ccccc2c1)C1CC1 (racemic) [Example 139] | 3.76 |
| CC(COc1ccccc1)NC(=O)c1c(C(F)F)nn(C)c1F (stereo not drawn) [Example 13] | 2.66 |
| CC(C)C(CCc1ccc(Cl)cc1)NC(=O)c1c(C(F)F)nn(C)c1Cl (stereo not drawn) [Example 62] | 4.11 |
| Cn1nc(C(F)F)c(C(=O)NCCOc2ccc(C(F)(F)F)cc2)c1F [Example 68] | 3.04 |
| CN(CCCc1ccccc1Cl)C(=O)c1c(C(F)F)nn(C)c1Cl [Example 141] | 3.17 |
| CC(C)N(CCOc1c(Cl)cc(Cl)cc1Cl)C(=O)c1c(C(F)F)nn(C)c1Cl [Example 208] | 4.71 |
| Cc1ccc(SCC(C2CC2)N(C)C(=O)c2c(C(F)F)nn(C)c2Cl)cc1 (stereo not drawn) [Example 41] | 3.85 |
| CCCN(CCOc1c(Cl)cc(Cl)cc1Cl)C(=O)c1c(C(F)F)nn(C)c1F [Example 204] | 4.37 |
| CN(CCC(=O)Nc1ccc(Cl)c(Cl)c1)C(=O)c1c(C(F)F)nn(C)c1Cl [Example 233] | 2.86 |
| CCCN(CCOc1ccccc1)C(=O)c1c(C(F)F)nn(C)c1F [Example 8] | 3.06 |
| CON(CCC(C)c1ccc(C)o1)C(=O)c1c(C(F)F)nn(C)c1F (stereo not drawn) [Example 112] | 3.23 |
| CCC(COc1cccc2ccccc12)NC(=O)c1c(C(F)F)nn(C)c1Cl (stereo not drawn) [Example 223] | 3.85 |
| CCN(C(=O)c1c(C(F)F)nn(C)c1Cl)C(C)COc1ccc(C)cc1 (stereo not drawn) [Example 39] | 3.48 |
| Cn1nc(C(F)F)c(C(=O)N(CCCC2CC=CO2)C2CC2)c1F (stereo not drawn) [Example 98] | 1.45 |
| Cn1nc(C(F)F)c(C(=O)NCC(=O)Nc2c(Cl)cc(Cl)cc2Cl)c1F [Example 197] | 2.39 |
| Cn1nc(C(F)F)c(C(=O)NC(CSc2ccccc2)C2CC2)c1Cl (stereo not drawn) [Example 23] | 3.44 |
| CC(C)C(C(=O)OCc1ccccc1)N(C)C(=O)c1c(C(F)F)nn(C)c1Cl (stereo not drawn) [Example 229] | 3.48 |
| CCCN(CCOc1ccc(Cl)cc1)C(=O)c1c(C(F)F)nn(C)c1F [Example 57] | 3.53 |
| CCCN(C(=O)c1c(C(F)F)nn(C)c1F)C(C)COc1ccccc1-c1ccccc1 (stereo not drawn) [Example 30] | 4.32 |
| CON(CCC(C)c1ccc(C)o1)C(=O)c1c(C(F)F)nn(C)c1Cl (stereo not drawn) [Example 111] | 3.29 |
| Cn1nc(C(F)F)c(C(=O)NCCOc2cccc(Oc3ccccc3)c2)c1Cl [Example 75] | 3.60 |
| Cc1ccc(C(C)CCN(C(=O)c2c(C(F)F)nn(C)c2F)C2CC2)o1 (stereo not drawn) [Example 107] | 3.41 |
| Cc1ccc(C(C)CCN(C)C(=O)c2c(C(F)F)nn(C)c2F)o1 (stereo not drawn) [Example 109] | 2.88 |
| Cn1nc(C(F)F)c(C(=O)NCCOc2ccc(Cl)cc2)c1Cl [Example 49] | 2.96 |

| Structure (SMILES) | logP |
| --- | --- |
| CCCN(CC(=O)Nc1c(Cl)cc(Cl)cc1Cl)C(=O)c1c(C(F)F)nn(C)c1Cl [Example 199] | 3.11 |
| Cn1nc(C(F)F)c(C(=O)NCCOc2c(Cl)cc(Cl)cc2Cl)c1Cl [Example 201] | 3.80 |
| Cn1nc(C(F)F)c(C(=O)NC(COc2ccccc2)C2CC2)c1Cl (stereo not drawn) [Example 20] | 3.25 |
| Cn1nc(C(F)F)c(C(=O)N(CCCc2cc3ccccc3s2)C2CC2)c1F [Example 94] | 3.79 |
| CC(C)N(CCOc1ccc(Cl)cc1)C(=O)c1c(C(F)F)nn(C)c1F [Example 56] | 3.62 |
| Cc1ccc(C(C)CCN(C(=O)c2c(C(F)F)nn(C)c2Cl)C2CC2)o1 (stereo not drawn) [Example 108] | 3.56 |
| CN(CCCc1cccs1)C(=O)c1c(C(F)F)nn(C)c1F [Example 104] | 2.52 |
| CN(CCCc1ccco1)C(=O)c1c(C(F)F)nn(C)c1F [Example 101] | 2.25 |
| Cn1nc(C(F)F)c(C(=O)NC(C)(C)C(=O)Nc2ccccc2)c1F [Example 24] | 2.10 |
| Cn1nc(C(F)F)c(C(=O)N(CCOc2ccc(Cl)cc2)C2CCCC2)c1Cl [Example 51] | 4.32 |
| Cc1ccc(CCCN(C(=O)c2c(C(F)F)nn(C)c2F)C2CC2)s1 [Example 113] | 3.44 |
| CCCN(CCOc1ccccc1)C(=O)c1c(C(F)F)nn(C)c1Cl [Example 7] | 3.21 |
| Cn1nc(C(F)F)c(C(=O)NCCOc2cc(Cl)cc(Cl)c2)c1Cl [Example 118] | 3.55 |
| CN(CC(=O)OCc1ccccc1)C(=O)c1c(C(F)F)nn(C)c1Cl [Example 228] | 2.57 |
| Cn1nc(C(F)F)c(C(=O)NCCOc2ccc(-c3ccccc3)cc2)c1F [Example 27] | 3.44 |
| Cn1nc(C(F)F)c(C(=O)NCCCc2ccco2)c1F [Example 100] | 2.17 |
| CC(C)N(CC(=O)Nc1ccccc1)C(=O)c1c(C(F)F)nn(C)c1F [Example 1] | 2.25 |
| CN(CCN(C)C(=O)c1c(C(F)F)nn(C)c1F)C(=O)c1ccccc1 [Example 230] | 1.66 |
| CN(CCC(=O)Nc1ccc(Cl)c(Cl)c1)C(=O)c1c(C(F)F)nn(C)c1F [Example 232] | 2.71 |
| Cn1nc(C(F)F)c(C(=O)N(CCOc2c(Cl)cc(Cl)cc2Cl)C2CCCC2)c1Cl [Example 206] | 5.27 |
| Cn1nc(C(F)F)c(C(=O)NCCCC2Cc3ccccc3O2)c1F (stereo not drawn) [Example 97] | 2.69 |
| CC(CCc1ncc(C(F)(F)F)cc1Cl)N(C)C(=O)c1c(C(F)F)nn(C)c1Cl (stereo not drawn) [Example 88] | 3.45 |
| Cn1nc(C(F)F)c(C(=O)NCCOc2ccc(-c3ccccc3)cc2)c1Cl [Example 26] | 3.60 |
| Cn1nc(C(F)F)c(C(=O)NC(C)(C)CCc2ccc(Cl)c(Cl)c2)c1Cl [Example 133] | 4.44 |
| Cn1nc(C(F)F)c(C(=O)NC2(C(=O)Nc3ccccc3)CCCC2)c1Cl [Example 4] | 2.62 |

More lines, now with the values ahead:

| logP | Structure (SMILES) |
| --- | --- |
| 3.79 | Cn1nc(C(F)F)c(C(=O)NC2CCCCC2C(C)(C)C)c1F (stereo not drawn) [Example 349] |
| 4.23 | CCC1(C)CC(NC(=O)c2c(C(F)F)nn(C)c2F)CC(C)(C)C1 (stereo not drawn) [Example 363] |
| 5.59 | Cn1nc(C(F)F)c(C(=O)N(C2CC2)C2CCCCC2C2CCCCC2)c1Cl (stereo not drawn) [Example 373] |
| 3.17 | CCN(CC=Cc1ccccc1)C(=O)c1c(C(F)F)nn(C)c1Cl [Example 263] |
| 2.73 | CN(CC=Cc1ccccc1)C(=O)c1c(C(F)F)nn(C)c1F [Example 262] |
| 5.17 | Cn1nc(C(F)F)c(C(=O)N(C2CC2)C2CCCCC2C2=CCCCC2)c1Cl (stereo not drawn) [Example 377] |
| 3.31 | Cc1ccsc1C#CCN(C(=O)c1c(C(F)F)nn(C)c1F)C1CC1 [Example 283] |
| 4.26 | Cc1ccc2sc(C#CCN(C(=O)c3c(C(F)F)nn(C)c3F)C3CC3)cc2c1 [Example 285] |
| 3.92 | Cn1nc(C(F)F)c(C(=O)N(CC#Cc2ccccc2)C2CCCC2)c1Cl [Example 274] |
| 4.39 | CC(CC[Si](C)(C)C)N(C(=O)c1c(C(F)F)nn(C)c1F)C1CC1 (stereo not drawn) [Example 304] |
| 4.56 | Cn1nc(C(F)F)c(C(=O)NC2CCCCC2C2CCCCC2)c1Cl (stereo not drawn) [Example 375] |
| 3.39 | CN(CC#Cc1cc2ccccc2s1)C(=O)c1c(C(F)F)nn(C)c1F [Example 278] |
| 3.02 | COCCN(CC=Cc1ccccc1)C(=O)c1c(C(F)F)nn(C)c1Cl [Example 265] |
| 5.42 | CC(C)CC(C)C1CCCCC1NC(=S)c1c(C(F)F)nn(C)c1Cl (stereo not drawn) [Example 336] |
| 3.33 | Cn1nc(C(F)F)c(C(=O)N(CC#Cc2ccccc2)C2CC2)c1Cl [Example 272] |
| 4.27 | CCCN(CCCOc1c(C)cc(C)cc1C)C(=O)c1c(C(F)F)nn(C)c1F [Example 235] |
| 2.08 isomer B | CC(O)C1CCCCC1NC(=O)c1c(C(F)F)nn(C)c1F (single isomer, unassigned) [Example 342] |
| 2.73 | C#CC1(NC(=O)c2c(C(F)F)nn(C)c2Cl)CCCCC1 [Example 384] |
| 4.39 | CCCN(CCCOc1c(C)cc(C)cc1C)C(=O)c1c(C(F)F)nn(C)c1Cl [Example 234] |
| 3.11 | CC(CSCc1ccco1)N(C(=O)c1c(C(F)F)nn(C)c1F)C1CC1 (stereo not drawn) [Example 236] |
| 2.84 | CN(CC=Cc1ccccc1)C(=O)c1c(C(F)F)nn(C)c1Cl [Example 261] |
| 4.83 | Cn1nc(C(F)F)c(C(=O)N(C2CC2)C2CCCC2C2CCCC2)c1Cl (stereo not drawn) [Example 369] |
| 4.21 | CCCC1CCCCC1NC(=S)c1c(C(F)F)nn(C)c1F (stereo not drawn) [Example 345] |
| 2.49 | CC(CSCc1ccco1)N(C)C(=O)c1c(C(F)F)nn(C)c1F (stereo not drawn) [Example 238] |
| 3.00 | Cn1nc(C(F)F)c(C(=O)N(CC#Cc2cccs2)C2CC2)c1F [Example 282] |
| 4.86 | CCCCC1CCCCC1NC(=S)c1c(C(F)F)nn(C)c1F (stereo not drawn) [Example 332] |

Same assay, conditions: HPLC on reversed-phase column (C18), 40° C., 0.1% aqueous formic acid and acetonitrile, linear gradient 10% to 90% acetonitrile

| Structure (SMILES) | logP |
| --- | --- |
| CC1CCCC(Cc2cccc(Cl)c2)C1NC(=O)c1c(C(F)F)nn(C)c1Cl (stereo not drawn) [Example 80] | 4.51 |

Same assay, conditions: reversed-phase HPLC column (C18), HPLC, 0.1% aqueous formic acid and acetonitrile, 40° C.; read-out: log P

| chromatographic logP | Structure (SMILES) |
| --- | --- |
| 2.71 | CC(C)(C)C#Cc1cccc(N)c1 [3-(3,3-dimethylbut-1-yn-1-yl)aniline] |

System: Pyrenophora teres
Experiment: In vivo preventive test on Pyrenophora teres (barley)
Conditions: 500 ppm of active ingredient, evaluated 7-9 days after inoculation
Procedure: Solvent: 49 parts by weight of N,N-dimethylformamide Emulsifier: 1 part by weight of alkylaryl polyglycol ether To produce a suitable preparation of active compound, 1 part by weight of active compound is mixed with the stated amounts of solvent and emulsifier, and the concentrate is diluted with water to the desired concentration. To test for preventive activity, young plants are sprayed with the preparation of active compound at the stated rate of application. One day after this treatment, the plants are inoculated with an aqueous spore suspension of Pyrenophora teres.

| Structure (SMILES) | Efficacy |
| --- | --- |
| Cn1nc(C(F)F)c(C(=O)NC(C)(C)CCc2ccccc2Cl)c1Cl [Example 147] | 100% |
| Cn1nc(C(F)F)c(C(=O)NCCCc2ccc(Cl)cc2Cl)c1Cl [Example 179] | 100% |
| CN(C(=O)c1c(C(F)F)nn(C)c1F)C(COc1ccc2ccccc2c1)C1CC1 (racemic) [Example 139] | 90% |
| CC(COc1ccccc1)NC(=O)c1c(C(F)F)nn(C)c1F (stereo not drawn) [Example 13] | 94% |
| CC(C)C(CCc1ccc(Cl)cc1)NC(=O)c1c(C(F)F)nn(C)c1Cl (stereo not drawn) [Example 62] | 80% |
| Cn1nc(C(F)F)c(C(=O)NCCOc2ccc(C(F)(F)F)cc2)c1F [Example 68] | 80% |
| CN(CCCc1ccccc1Cl)C(=O)c1c(C(F)F)nn(C)c1Cl [Example 141] | 90% |
| Cn1nc(C(F)F)c(C(=O)NC2CCCCC2C(C)(C)C)c1F (stereo not drawn) [Example 349] | 95% |
